Values joined by “and” are separate entries in the source; they are usually repeats but may differ in a detail not shown here. Equal values may be shown once.
Key:
[1] = test system: youth with Fragile X Syndrome (FXS); assay: 10-week open-label trial of acamprosate in youth with FXS: behavioral outcome measures; format: in vivo, human; conditions: for Aberrant Behavior Checklist-Social Avoidance (ABC-SA), end point mean ± SD: baseline 3.3 ± 2.6, p 0.01; for Clinical Global Impressions-Severity (CGI-S), end point mean ± SD: baseline 4.25 ± 0.45; for Clinical Global Impressions-Severity (CGI-S), end point mean ± SD / ADHD Rating Scale 4th Edition (ADHD-RS), end point mean ± SD: p <0.0001; for Aberrant Behavior Checklist-Social Withdrawal (ABC-SW), end point mean ± SD: baseline 8.8 ± 5.8, p 0.04 (Table 2), baseline 7.33 ± 5.2, p 0.014 (Table 5); for Aberrant Behavior Checklist-Hyperactivity (ABC-H), end point mean ± SD: baseline 16.8 ± 9.1, p 0.009; for ADHD Rating Scale 4th Edition (ADHD-RS), end point mean ± SD: baseline 23.6 ± 10.6; for Vineland Adaptive Behavior Scale (VABS) Communication Domain, end point mean ± SD: baseline 63.4 ± 10.1, p 0.03; for VABS Expressive Communication Subdomain, end point mean ± SD: baseline 69.8 ± 23.0, p 0.003; for Social Responsiveness Scale total score (SRS), end point mean ± SD: baseline 91.3 ± 27.4, p 0.005
Source text: The Institutional Review Board (IRB) at an academic medical center approved this study. Thirteen outpatient males and females aged 5 to 17 years with body weight 15 kg were recruited for this study. Written informed consent was obtained from each participant's legal guardian (parent for all children in this report), and subjects provided assent when able. Diagnosis of FXS was confirmed by Southern Blot and PCR results consistent with a greater than 200 CGG repeat expansion in the FMR1 gene with at least partial gene methylation. Subjects had to be free of other significant medical conditions. The concomitant use of psychotropic drugs that are not thought to impact glutamate neurotransmission were allowed so long as the patients experienced stable dosing at least 4 weeks prior to baseline. Subjects were required to have a mental age of greater than 18 months as determined by the Stanford-Binet 5th Edition. Additional inclusion criteria included a CGI-S(Guy 1976) score of at least 4 (“Moderately Ill”). Subjects with a Diagnostic and Statistical Manual of Mental Disorders, 4th Edition, Text Revision (DSM-IV-TR) diagnosis of a psychotic disorder, bipolar disorder, or substance use disorder were excluded from the study. Additionally, subjects with a positive urine pregnancy test, creatinine clearance of <30, active seizure disorder, or other significant medical condition were excluded.
A 10-week, prospective, open-label study design was chosen to gather pilot data for potential future larger-scale, double-blind, placebo-controlled studies in this population.
All subjects underwent a screening and baseline visit followed by follow-up visits every 2 weeks during the 10-week open-label trial period. At the end of weeks 1, 3, and 5 the investigators called the parent to assess drug tolerability and to make dose adjustments as indicated. All subjects received 333 mg/day of acamprosate during the first week of the study. The investigators then increased the dosage to a maximum of 1,998 mg/day (weight>50 kg) or 1,332 mg/day (weight<50 kg) over the first six weeks of the study, if optimal clinical response (CGI-I equal to 1 “very much improved”) had not occurred and intolerable adverse effects had not emerged. The dose maintenance phase lasted 4 weeks at the optimal dosage.
The CGI-S assessment was administered at screen and at baseline as part of the eligibility criteria described above. In this study, the rater scored the CGI-S in regard to severity of symptoms commonly noted in FXS including, but not limited to, inattention/hyperactivity, social impairment, communication impairment, repetitive behavior, irritability, and anxiety. The CGI-S is rated on a scale from 1 to 7 (1=normal, not ill at all; 2=borderline ill; 3=mildly ill; 4=moderately ill; 5=markedly ill; 6=severely ill; 7=among the most extremely ill patients with FXS). The Autism Diagnostic Observation Schedule (ADOS) (Lord, Rutter et al. 1989) was administered at baseline to characterize potential concomitant ASD diagnosis.
The primary outcome measure was the CGI-I. The CGI-I is a scale designed to assess global change from baseline. […] Treatment response was defined by a CGI-I score of 1 “very much improved” or 2 “much improved.” In this study, the CGI-I was utilized as a general global primary outcome measure given the uncertainty as to what specific symptoms/behaviors associated with FXS may be expected to improve or worsen with use of acamprosate. The CGI-I was administered at all visits after baseline.
Secondary outcome measures included all subscales of the ABC (Irritability, Social Withdrawal, Stereotypy, Hyperactivity, and Inappropriate Speech). The ABC is an informant-rated (primary caregiver) measure with confirmed reliability and validity with regard to factor structure, distribution of scores, and sensitivity to change in persons with developmental disability (Aman, Singh et al. 1985). […]

BDNF = assay: plasma BDNF by ELISA in the FXS open-label trial; format: in vivo, human
Procedure: Blood samples for BDNF were drawn at Screen and at Week 10 of the study. BDNF analysis was done blind to patient assignment (pre- or post-treatment). Approximately 4 ml of blood was collected in EDTA containing tubes. Within 30 minutes of collection, the blood was centrifuged at 1000 g at 2-8° C. for 15 minutes. Plasma was collected and an additional centrifugation of the collected plasma at 1000 g at 2-8° C. for 10 minutes was done to completely remove platelets from the samples. All plasma samples were stored at −80° C. BDNF assays were done at the same time with all samples in triplicate. To determine plasma BDNF, a sensitive ELISA based method was used using human BDNF ELISA kit from R&D systems (Minneapolis, Minn.; USA) that is validated for detection of BDNF present in human plasma (Grassi-Oliveira et al., 2008). The amount (pg/ml) of BDNF present in the plasma samples was determined from the pg value obtained in the standard curve using a known amount of pure human BDNF, which was run at the same time with subjects' samples.
All data were recorded in IBM SPSS Statistics Professional for statistical analysis. Potential differences in pre- and post-treatment mean values of all outcome measures employed were calculated using paired t-tests. […] Effect sizes were calculated by taking the mean change from baseline to endpoint divided by the standard deviation at baseline.

[2] = test system: glutamate or GABA receptors subtypes; conditions: xenopus oocyte model, clinically relevant concentrations; cited from earlier work
[3] = FXS, 10 weeks, listed as Acamprosate
[4] = baseline to endpoint, FXS, p=0.01
[5] = mean change from baseline to endpoint divided by SD at baseline, FXS

For `CC(=O)NCCCS(=O)(=O)O.[Ca]` [acamprosate, Calcium Acetylhomotaurine], the “treatment responders (CGI-I score of 1 or 2)” value ([1]; 12 youth with FXS, 10 weeks, mean final dose 1054 mg/day) was 75%, the “mean CGI-I at endpoint” value ([1]; 12 youth with FXS, scale 1-7) was 1.9 and the “mean CGI-I values for the responders at week 10” value ([1]; FXS trial, week 10) was 1.92. For the same compound, the “PPVT scores, change with treatment” value ([1]; FXS, 10 weeks) was “did not significantly change”, the “SRS Social Awareness and Autistic Mannerisms subscales, change with treatment” value ([1]; FXS, 10 weeks) was “Improvement was not noted” and the “other VABS domains, change with treatment” value ([1]; FXS, 10 weeks) was “No other changes with treatment were noted”. For the same compound, the “other subscales of the ABC and the CY-BOCS-PDD, change during treatment” value ([1]; FXS, 10 weeks) was “did not change significantly”, the “Aberrant Behavior Checklist-Social Avoidance (ABC-SA), end point mean ± SD” value ([1]; FXS, 10 weeks) was 1.6 and the “Aberrant Behavior Checklist-Social Avoidance (ABC-SA), end point mean ± SD” value [1, 3] was 1.6 ± 2.7. The “Clinical Global Impressions-Severity (CGI-S), end point mean ± SD” value ([1]; FXS, 10 weeks) was 3.33, the “Clinical Global Impressions-Severity (CGI-S), end point mean ± SD” value [1, 3] was 3.33 ± 0.5 and 3.33 ± 0.49 and the “Aberrant Behavior Checklist-Inappropriate Speech (ABC-IS), end point mean ± SD” value ([1]; FXS, 10 weeks, baseline 5.2 ± 3.5, p 0.61) was 4.8 ± 3.4. For the same compound, the “Aberrant Behavior Checklist-Stereotypy (ABC-S), end point mean ± SD” value ([1]; FXS, 10 weeks, baseline 6.8 ± 6.8, p 0.09) was 6 ± 6.3, the “Aberrant Behavior Checklist-Social Withdrawal (ABC-SW), end point mean ± SD” value ([1]; FXS, 10 weeks) was 4.1 and the “Aberrant Behavior Checklist-Social Withdrawal (ABC-SW), end point mean ± SD” value [1, 3] was 4.1 ± 6.5. The “Aberrant Behavior Checklist-Irritability (ABC-I), end point mean ± SD” value ([1]; FXS, 10 weeks, baseline 9.9 ± 7.8, p 0.11) was 7.0 ± 8.9, the “Children's Yale-Brown Obsessive Compulsive Scale Modified for PDD (CY-BOCS-PDD), end point mean ± SD” value ([1]; FXS, 10 weeks, baseline 11.1 ± 2.6, p 0.15) was 9.8 ± 4.1 and the “Aberrant Behavior Checklist-Hyperactivity (ABC-H), end point mean ± SD” value ([1]; FXS, 10 weeks) was 11.0. The “Aberrant Behavior Checklist-Hyperactivity (ABC-H), end point mean ± SD” value [1, 3] was 11.0 ± 8.6, the “ADHD Rating Scale 4th Edition (ADHD-RS), end point mean ± SD” value ([1]; FXS, 10 weeks) was 16.7 and the “ADHD Rating Scale 4th Edition (ADHD-RS), end point mean ± SD” value [1, 3] was 16.7 ± 8. For the same compound, the “Vineland Adaptive Behavior Scale (VABS) Communication Domain, end point mean ± SD” value ([1]; FXS, 10 weeks) was 66.6, the “Vineland Adaptive Behavior Scale (VABS) Communication Domain, end point mean ± SD” value [1, 3] was 66.6 ± 11.2 and the “VABS Expressive Communication Subdomain, end point mean ± SD” value ([1]; FXS, 10 weeks) was 78.9. For the same compound, the “VABS Expressive Communication Subdomain, end point mean ± SD” value [1, 3] was 78.9 ± 21.2, the “Peabody Picture Vocabulary Test (PPVT), end point mean ± SD” value ([1]; FXS, 10 weeks, baseline 85.2 ± 32.0, p 0.53) was 83.3 ± 32 and the “Social Responsiveness Scale total score (SRS), end point mean ± SD” value ([1]; FXS, 10 weeks) was 76.4. For the same compound, the “Social Responsiveness Scale total score (SRS), end point mean ± SD” value [1, 3] was 76.4 ± 26.8 and 76.42 ± 26.8, the “decline of mean ABC-H score” value ([1]; baseline to endpoint, FXS) was 35% and the “decline of mean ABC-SA score” value ([1]; baseline to endpoint, FXS) was 51%. The “decline of mean ABC-SW score” value ([1]; baseline to endpoint, FXS) was 53%, the “decline of mean ADHD-RS score” value ([1]; baseline to endpoint, FXS) was 29% and the “decline of mean total SRS raw score” value ([1]; baseline to endpoint, FXS) was 16%. For the same compound, the “improvement of mean VABS Communication Domain standard score” value ([1]; baseline to endpoint, FXS) was 5%, the “improvement of mean VABS Expressive Communication score” value ([1]; baseline to endpoint, FXS) was 13% and the “decline of SRS Social Motivation subscale” value ([1]; baseline to endpoint, FXS, p=0.003) was 28%. For the same compound, the “decline of SRS Social Cognition subscale” value [1, 4] was 19%, the “decline of SRS Social Communication subscale” value [1, 4] was 14% and the “Effect Size, ABC-H” value [1, 5] was 0.64. The “Effect Size, ABC-SA” value [1, 5] was 0.64, the “Effect Size, ABC-SW” value [1, 5] was 0.81 and the “Effect Size, ADHD-RS” value [1, 5] was 0.65. For the same compound, the “Effect Size, CGI-S” value [1, 5] was 2.0, the “Effect Size, SRS total score” value [1, 5] was 0.54 and the “Effect Size, VABS Communication Domain” value [1, 5] was 0.3. The “Effect Size, VABS Expressive Communication Subdomain” value [1, 5] was 0.4, the “Effect Size, VABS Communication Domain” value ([1]; mean change from baseline to endpoint divided by SD at baseline, FXS, listed as Acamprosate) was 0.32 and the “treatment responders, number of subjects” value ([1]; of 12 youth with FXS) was 9. The “change in plasma BDNF from screen to Week 10” value (BDNF; 10 subjects with FXS) was “All subjects experienced an increase”, the “mean subject plasma BDNF after treatment” value (BDNF; Week 10, 10 subjects with FXS, screen 790.4±1350.4 pg/mL, p=0.01) was 1007.6 ± 1493.2 pg/mL and the “direct binding to glutamate or GABA receptors subtypes” value [2] was “no direct binding”.
